How the values were obtained:
monocyte derived DC = assay: Flow cytometric analysis of DC surface molecules; assay type: cell-based, human; details: immature DC of allergics, 48 h incubation
Method: Monocyte derived DC were generated as previously described (Weigt et al. Immunobiol. 207, 223-233 (2003). Briefly, blood was centrifuged to remove platelets, diluted and layered over Ficoll-Paque (Amersham Pharmacia, Uppsala, Sweden). After density gradient centrifugation, PBMC were collected, and monocytes were enriched using the MACS system and anti-CD14 beads (Miltenyi Biotec, Bergisch Gladbach, Germany). The CD14 positive fraction (monocytes) was cultured in the serum-free medium X-VIVO 15 supplemented with 100 U/ml penicillin and […] streptomycin (all BioWhittaker, Verviers, Belgium). The CD14 negative fraction containing the lymphocytes was cryopreserved in 90% FCS (GIBCO, Eggenstein-Leopoldhafen, Germany) and 10% DMSO (SIGMA, Taufkirchen, Germany). On day 1 and day 5 after isolation, 800 U/m of recombinant GM-CSF and 500 U/ml of recombinant IL-4 (Strathmann Biotec, Hamburg, Germany) were added to the monocyte culture to induce DC.
On day 5 of the culture, DC were pulsed with affinity purified house dust mite allergen adjusted to a concentration of 100 ng/ml of DerP1 or with PBS as control. […] The respective optimal concentrations were experimentally determined using the highest expression of stimulatory cell surface molecules as read-out system. The substances were incubated on the cells for 48 hours.
For immunophenotyping, an aliquot of DC was harvested after 7 days of culture and washed in PBS supplemented with 0.5% FCS and 10 mM NaN3 (SIGMA, Taufkirchen, Germany). After 30-minute-incubation at 4° C. with one of the following combination of labeled murine mAbs (isotype control FITC/isotype control PE, anti-CD83 FITC, anti-CD86 FITC/anti-CD40 PE, anti-CD 80 FITC/anti-HLA-DR PE, anti-CD1a FITC/anti-CD14 PE (all BD Biosciences, Heidelberg, Germany)) cells were washed and analysed on a EPICS XL-MCL (Beckmann Coulter, Krefeld, Germany) flow cytometer. Data were processed with the Expo 32 cytometer software (Beckmann Coulter). The expression of the cell surface molecules was shown in 1 parameter Histograms (FIG. 2) or evaluated using the median of fluorescence intensity (MFI) after subtraction of the values of the isotype control (Tab. 1).

autologous lymphocytes [1] = assay: Proliferation assay (3H-thymidine) in coculture of DC and autologous lymphocytes; assay type: cell-based, human; details: DC of allergics, allergen pulsed, 3H-thymidine day 12 for 18 hours
Method: A portion of DC was used for coculture experiments with autologous lymphocytes from day 7 to day 13. To remove free stimulants, DC were harvested and washed twice. The cells were titrated in fresh medium in fresh round-bottom microtiterplates. 1×10^5 vital cryopreserved autologous lymphocytes were added at ratios of DC to lymphocytes from 1:3 to 1:2187 in a final volume of 200 μl in serum-free XVIVO-15. No further stimulants were given.
The coculture was pulsed with 5 μCi/ml ^3H-thymidine (Amersham Buchler, Braunschweig, Germany) on day 12. After 18 hours, the cells were harvested on filtermats (Canberra-Packard, Dreieich, Germany). After drying, 20 μl of liquid scintillator (Can berra-Packard) were added and the plates were sealed. Counts per minute were determined on a Topcount Microplate Scintillation Counter (Can berra-Packard).

Balb/c mice = assay: Cytokines in BALF of OVA-sensitized and challenged mice (ELISA); assay type: in vivo, mouse; details: i.t. treatment day 27 (20 ng MALP-2, 10^4 U IFN-γ); 24 h after last allergen challenge
Method: Female Balb/c mice (Charles River, Sulzfeld, Germany) were used at the age of 6-8 weeks In all experiments. They were fed with ovalbumin-free laboratory food and tap water ad libitum and held in a regular 12 h dark/light cycle at a temperature of 22° C. Before experimental start, mice were acclimated for a period of 7 days.
Animals were sensitized and challenged as previously described (Glaab, T., A. Daser, A. Braun, U. Neuhaus-Steinmetz, H. Fabel, Y. Alarie, and H. Renz. 2001. Am. J. Physiol Lung Cell Mol. Physiol 280:L565-L573). Briefly, 10 μg ovalbumin (OVA, grade VI, Sigma, Müchen, Germany) was adsorbed to 1 mg Imject Alum (Pierce, Rockford, USA) in a total volume of 200 μl 0.9% NaCl solution and intraperitonealy injected three times on days 0, 14 and 21. Negative controls were injected with the solution lacking ovalbumin. All groups were subjected to inhalative allergen challenge on days 28 and 29. OVA-aerosols (grade V, Sigma) with a mean mass diameter of 1.49 μm were generated from a solution of 1 mg/ml OVA in 0.9% NaCl using a modified Pad Master system (Pari Werke, Sternberg, Germany) for 20 min. A lung deposition of approximately 8 μg OVA per mice in each session was calculated by a respiratory minute volume of 35 ml/min an a deposition factor of 0.15 as brought forward by Raabe et al. (Raabe, O. G., J. E. Bennick, M. E. Light, C. H. Hobbs, R. L. Thomas, and M. I. Tillery. 1973. Toxicol. Appl. Pharmacol. 26:264-273). 3 gives the test groups.
The trachea was canulated under direct vision, and a total volume of 50 μl containing the substances was instillated using a syringe.
Mice were killed with an i.p. injected overdose of pentobarbital-Na (Menial, Halbergmoos, Germany) after the lung function. In a satellite group, mice were left untouched after the last allergen challenge and kept for another 7 days. Afterwards, they were dissected in the same way as the main groups as follows. Blood was obtained via punction of the vena cava. Red blood cells were lysed by incubation with 0.9% NH4Cl (Sigma) in H2O for 10 min, white blood cells were automatically counted using an AcT8 counter (Beckman Coulter, Krefeld, Germany) and cytospins were prepared for differential cell count. The trachea was canulated and broncho-alveolar lavage (BAL) was performed with 0.8 ml ice cold saline two times. BAL cells were separated by centrifugation, counted and cytospins were prepared as described above. The BAL fluid (BALF) was aliquoted, shock frozen in liquid nitrogen and stored at −80° C. until the determination of cytokines. After BAL, the lungs were filled with Tissue-Tek O.C.T. (Sakura Finetek, Zoeterwoude, Netherlands) diluted 1:2 in PBS and the trachea was ligated. Next, the right lungs were excised, subsequently shock frozen in liquid nitrogen and stored at −80° C. for histology.
Duo-Set ELISA kits for the detection of IL-4, IL-5, IL-13 and IL-12p70 in the BAL supernatant were used (R&D Systems, Wiesbaden, Germany) according to the manufacturer's instructions.

autologous lymphocytes [2] = details: DC treated in vitro; Weigt et al. 2003; cited from earlier work

IFN-γ: interferon gamma, IFNγ receptor agonist (Strathmann Biotec)
Surface expression of CD80, CD86, CD40, HLA-DR, CD83 on DC (monocyte derived DC): upregulated only HLA-DR
Lymphocyte proliferation (autologous lymphocytes [1]): increased proliferation
IL-4 in BALF (Balb/c mice): did not affect IL-4
IL-5 and IL-13 in BALF (Balb/c mice): reduced the levels of IL-5 and IL-13
IL-12p70 in BALF (Balb/c mice): failed to induce IL-12p70

macrophage activating lipopeptide-2 [MALP-2, reference compound]
Surface expression of CD80, CD86, CD40, HLA-DR, CD83 on DC (monocyte derived DC): significantly upregulated CD 40, CD 80, CD 83 and CD86
Lymphocyte proliferation (autologous lymphocytes [1]): exceeded by MALP-2
IL-4 in BALF (Balb/c mice): reduce all Th2-markers to the level of the unsensitized negative control
IL-5 and IL-13 in BALF (Balb/c mice): reduce all Th2-markers to the level of the unsensitized negative control
IL-12p70 in BALF (Balb/c mice): did not amplify IL-12p70
Polarization of lymphocytes into T-helper (Th-1) cells (autologous lymphocytes [2]): no significant polarization
Proliferation of autologous lymphocytes (autologous lymphocytes [2]): marked proliferation
